Results: patent US10111874B2, “Combination therapies for treatment of cancer” (Araxes Pharma LLC, priority 2014, dated 2018)

Each compound was assayed against T1, KRAS G12C 1-169, his-tagged protein, GDP-loaded (Homo sapiens, UniProt P01116, G12C) (assay: Biochemical assay: covalent binding to KRAS G12C analyzed by mass spectrometry). Settings: compounds 1-47, measured at 24 h.
T1 construct: KRAS G12C 1-169, his-tagged protein, GDP-loaded
Further: test concentration or dose not given here.

T1 sequence (P01116 1-169 isoform P01116-2 G12C): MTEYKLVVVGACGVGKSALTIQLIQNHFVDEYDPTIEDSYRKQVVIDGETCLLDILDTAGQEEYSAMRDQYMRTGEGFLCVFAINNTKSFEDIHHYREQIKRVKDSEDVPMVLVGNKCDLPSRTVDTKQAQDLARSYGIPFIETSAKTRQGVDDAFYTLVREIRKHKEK

Q: Which Binding % does the source give for `C=CC(=O)N1CCN(c2n[nH]c3cc(Cl)c(-c4ccccc4Cl)cc23)CC1` [Compound I-3, 1-(4-(6-chloro-5-(2-chlorophenyl)-1H-indazol-3-yl)piperazin-1-yl)prop-2-en-1-one] here?
A: + (+indicates binding activity from 5% to 25%)

Q: For `C=CC(=O)N1CCN(c2ncnc3cc(Cl)c(-c4cc(Cl)ccc4O)cc23)CC1` [Compound I-10, 1-(4-(7-chloro-6-(5-chloro-2-hydroxyphenyl)quinazolin-4-yl)piperazin-1-yl)prop-2-en-1-one], which Binding % is on record?
A: ++ (++indicates binding activity greater than 25% and up to 50%)

Q: For `C=CC(=O)N1CCC2(C1)CN(C(=O)CNc1cc(Cl)c(Cl)cc1O)C2` [Example 40, 1-(2-(2-(4,5-dichloro-2-hydroxyphenylamino)acetyl)-2,6-diazaspiro[3.4]octan-6-yl)prop-2-en-1-one], which Binding % is on record?
A: +++ (+++indicates binding activity greater than 50% and up to 75%)

Q: With `C=CC(=O)N1CCN(c2ncc3cccc(-c4ccccc4Cl)c3n2)CC1` [Compound I-35, 1-(4-(8-(2-chlorophenyl)quinazolin-2-yl)piperazin-1-yl)prop-2-en-1-one] as the compound, how does the Binding % read?
A: + (+indicates binding activity from 5% to 25%)

Same assay, conditions: compounds 48-246, measured at 2 h

Q: For `C=CC(=O)N1CCN(c2ncnc3cc(-c4ccccc4-c4cncs4)c(Cl)cc23)CC1` [Compound I-187, 1-(4-(6-chloro-7-(2-(thiazol-5-yl)phenyl)quinazolin-4-yl)piperazin-1-yl)prop-2-en-1-one], which Binding % is on record?
A: +++ (+++indicates binding activity greater than 50% and up to 75%)

Q: `C=CC(=O)N1CCN(c2ncnc3cc(Cl)c(-c4cccs4)cc23)CC1C#N` (centres unmarked) [Compound I-51, 1-acryoyl-4-(7-chloro-6-(thiophen-2-yl)quinazaolin-4-yl)piperazine-2-carbonitrile] was tested. Which Binding % did it give?
A: ++++ (++++indicates binding activity greater than 75%)

Q: How did the Binding % turn out when `C=CC(=O)N1CCN(c2ncnc3cc(-c4ccc(O)cc4C(F)(F)F)c(Cl)cc23)CC1` [Compound I-169, 1-(4-(6-chloro-7-(4-hydroxy-2-(trifluoromethyl)phenyl)quinazolin-4-yl)piperazin-1-yl)prop-2-en-1-one] was run?
A: +++ (+++indicates binding activity greater than 50% and up to 75%)

Q: `C=CC(=O)N1CCN(c2c(C#N)cnc3c(F)c(-c4c(O)cccc4F)c(Cl)cc23)CC1` [Compound I-246, 4-(4-acryloylpiperazin-1-yl)-6-chloro-8-fluoro-7-(2-fluoro-6-hydroxyphenyl)quinoline-3-carbonitrile] was tested. Which Binding % did it give?
A: ++++ (++++indicates binding activity greater than 75%)

Q: For `C=CC(=O)N1CCN(c2ncnc3cc(-c4cccc5c4CCC(=O)N5)c(Cl)cc23)CC1` [Compound I-205, 5-(4-(4-acryloylpiperazin-1-yl)-6-chloroquinazolin-7-yl)-3,4-dihydroquinolin-2(1H)-one], which Binding % is on record?
A: + (+indicates binding activity from 5% to 25%)

Q: How did the Binding % turn out when `C=CC(=O)N1CCN(c2c(C#N)cnc3cc(-c4ccc(F)cc4F)c(Cl)cc23)CC1` [Compound I-172, 4-(4-acryloylpiperazin-1-yl)-6-chloro-7-(2,4-difluorophenyl)quinolin-3-carbonitrile] was run?
A: +++ (+++indicates binding activity greater than 50% and up to 75%)

Same assay, conditions: compounds 247-342, measured at 30 min

Q: How did the Binding % turn out when `C=CC(=O)N1CCN(c2ncnc3c(F)c(-c4c(C)c(C)cc5cn[nH]c45)c(Cl)cc23)CC1` [Compound I-255, 1-(4-(6-chloro-7-(5,6-dimethyl-1H-indazol-7-yl)-8-fluoroquinaolin-4-yl)piperazin-1-yl)prop-2-en-1-one] was run?
A: +++ (+++indicates binding activity greater than 50% and up to 75%)

Q: For `C=CC(=O)N1CCN(c2ncnc3c(F)c(-c4c(O)cccc4F)c(F)cc23)CC1` [Compound 299, 1-(4-(6,8-difluoro-7-(2-fluoro-6-hydroxyphenyl)quinazolin-4-yl)piperazin-1-yl)prop-2-en-1-one], which Binding % is on record?
A: + (+indicates binding activity from 5% to 25%)

Q: With `C=CC(=O)N1CCN(c2ncnc3c(F)c(-c4cc(C(F)F)cc5ccccc45)c(Cl)cc23)CC1` [Compound 337] as the compound, how does the Binding % read?
A: + (+indicates binding activity from 5% to 25%)

Q: `N#C/C(=C\c1cncs1)C(=O)N1CCN(c2ncnc3c(F)c(-c4c(O)cccc4F)c(Cl)cc23)CC1` [Compound I-283, (E)-2-(4-(6-chloro-8-fluoro-7-(2-fluoro-6-hydroxyphenyl)quinazolin-4-yl)piperazine-1-carbonyl)-3-(thiazol-5-yl)acrylonitrile] was tested. Which Binding % did it give?
A: ++ (++indicates binding activity greater than 25% and up to 50%)

Q: For `C=CC(=O)N1CCN(c2ncnc3c(F)c(-c4c(C)ccc5cn[nH]c45)c(F)cc23)CC1` [Compound 298, 1-(4-(6,8-difluoro-7-(6-methyl-1H-indazol-7-yl)-quinazolin-4-yl)piperazin-1-yl)prop-2-en-1-one], which Binding % is on record?
A: ++ (++indicates binding activity greater than 25% and up to 50%)

Q: Which Binding % does the source give for `NC/C=C/C(=O)N1CCN(c2ncnc3c(F)c(-c4cc(O)cc5ccccc45)c(Cl)cc23)CC1` [Compound 335, (E)-4-amino-1-(4-(6-chloro-8-fluoro-7-(3-hydroxynaphthalen-1-yl)quinazolin-4-yl)piperazin-1-yl)but-2-en-1-one] here?
A: ++++ (++++indicates binding activity greater than 75%)

Q: Which Binding % does the source give for `C=CC(=O)N1CCN(c2c(C#N)cnc3c(F)c(-c4ccccc4C(F)(F)F)c(Cl)cc23)CC1` [Compound I-285, 4-(4-acryloylpiperazin-1-yl)-6-chloro-8-fluoro-7-(2-(trifluoromethyl)phenyl) quinoline-3-carbonitrile] here?
A: +++ (+++indicates binding activity greater than 50% and up to 75%)

Q: `C=CC(=O)N1CCN(c2ncnc3cc(-c4cc(C(C)(C)O)ccc4F)c(Cl)cc23)CC1` [Compound I-267, 1-(4-(6-chloro-7-(2-fluoro-5-(2-hydroxypropan-2-yl)phenyl)quinazolin-4-yl)piperazin-1-yl)prop-2-en-1-one] was tested. Which Binding % did it give?
A: + (+indicates binding activity from 5% to 25%)

Same assay, conditions: determined at 2 hrs

Q: With `C=CC(=O)N1CC(N2CCN(C(=O)CNc3cc(C4CC4)c(Cl)cc3O)CC2C(N)=O)C1` (centres unmarked) [II-51, 1-(1-acryloylazetidin-3-yl)-4-(2-(4-chloro-5-cyclopropyl-2-hydroxyphenylamino)acetyl)piperazine-2-carboxamide] as the compound, how does the Binding % read?
A: ++ (++indicates binding activity greater than 20%)

Q: With `C=CC(=O)N1CC(N2CCN(C(=O)CNc3cc(C4CC4)c(Cl)cc3O)CC2C)C1` (centres unmarked) [II-60, 1-(3-(4-(2-((4-Chloro-5-cyclopropyl-2-hydroxyphenyl)amino)acetyl)-2-methylpiperazin-1-yl)azetidin-1-yl)prop-2-en-1-one] as the compound, how does the Binding % read?
A: ++ (++indicates binding activity greater than 20%)

Q: Which Binding % does the source give for `C=CC(=O)N1CC(N2CCN(C(=O)[C@H](C)Nc3cc(C4CC4)c(Cl)cc3O)CC2)C1` [II-67, (S)-1-(3-(4-(2-((4-Chloro-5-cyclopropyl-2-hydroxyphenyl)amino)propanoyl)piperazin-1-yl)azetidin-1-yl)prop-2-en-1-one] here?
A: ++ (++indicates binding activity greater than 20%)

Same assay, conditions: determined at 24 hrs

Q: `C=CC(=O)N1CC(N2CCN(C(=O)CNc3cc(C#N)c(Cl)cc3Cl)CC2)C1` [II-9, 5-(2-(4-(1-acryloylazetidin-3-yl)piperazin-1-yl)-2-oxoethylamino)-2,4-dichlorobenzonitrile] was tested. Which Binding % did it give?
A: + (+indicates binding activity from 5% to 15%)

Q: Which Binding % does the source give for `C=CC(=O)NC1CN(C2CN(C(=O)CNc3cc(C4CC4)c(Cl)cc3O)C2)C1` [II-45, N-(1′-(2-(4-chloro-5-cyclopropyl-2-hydroxyphenyl-amino)acetyl)-1,3′-biazetidin-3-yl)acrylamide] here?
A: ++++ (++++indicates binding activity greater than 50%)
